Results taken from PubChem BioAssay AID624456 (Sanford-Burnham Center for Chemical Genomics, 2012).

Test system: compound stability in 1x PBS, percent remaining
Assay: percent compound remaining in PBS buffer – biochemical, 1x PBS, with and without 50% ACN, set 2, ADME assay (AID 624456);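 also: percent left after two days of incubation at room temperature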
[1] = measured here: stability in PBS with 50% ACN

Structure (SMILES)	stability	stability [1]
Cc1ccc(-n2c(N)c(C#N)c(-c3ccccc3)c(C#N)c2=O)cc1	81.4%	98.2%
CCCN1CNc2c(c(=O)[nH]c(=S)n2CCc2ccc(OC)c(OC)c2)C1	78.5%	100%
COc1cccc(-c2nc(-c3ccc(NC(=O)Cc4ccccc4OC)cc3)no2)c1	81.5%	90.4%
O=C(CCNS(=O)(=O)c1cccc2nsnc12)N1CCN(c2ccccn2)CC1	91.6%	100%
O=C(O)c1ccc(N2C(=O)/C(=C/c3ccc(-c4ccc([N+](=O)[O-])cc4)o3)C=C2c2ccccc2)cc1	14.5%	62.9%
CCCN(CCC)CCNC(=O)C1CCN(Cc2nc(-c3ccc(Cl)cc3)oc2C)CC1	99.4%	100%
NC(=O)C1CCN(c2nc(-c3ccc(Br)cc3)cs2)CC1	70.8%	100%
O=C(CSc1cccc2cccnc12)N1CCCC1	100%	100%
Cc1ccc(S(=O)(=O)NCc2ccc(C(=O)NCCN(Cc3ccccc3)C(C)C)cc2)cc1	84.8%	100%
COc1ccccc1N(/N=C1\Sc2ccccc2C1=O)C(C)=O	81.6%	88.1%
O=S1(=O)Nc2c(ccc3cccnc23)-c2ccccc21	91.3%	94.9%
COc1ccc(CSc2nc(C)cc(=O)[nH]2)cc1	88.5%	99.8%
O=C(O)c1ccccc1OCc1ccccc1Br	98.8%	100%
Cc1ccc(S(=O)(=O)C(c2ccccc2)c2c(C)noc2C)cc1 (stereo not given)	83.8%	99.3%
Cc1ccc(C)c(OCCn2cc(C(=O)O)c3ccccc32)c1	90.3%	100%
Cc1ccc(C)c(NS(=O)(=O)c2cc(C(=O)Nc3ccccc3-c3ccccc3)ccc2Cl)c1	34.6%	98%
CSc1nc(-c2ccc(C)cc2)nc(C(Cl)Cl)n1	0.45%	96.5%
COc1ccc(CNCc2cccc3ccccc23)cc1	50.6%	100%
N#Cc1ccccc1CSc1nc2ncc(Br)cc2[nH]1	60.5%	55.9%
O=C1CCCC2=C1C1(CCCC1)N=C(Nc1nc3ccccc3o1)N2	21.9%	90.2%
O=C(O)c1cccnc1SCCc1ccccc1	96.5%	100%
O=C(O)CCC(NS(=O)(=O)c1ccc(-c2ccccc2)cc1)C(=O)O (stereo not given)	100%	100%
CC1CCCN(C(C(=O)Nc2ccc3c(c2)OCCO3)c2ccccc2)C1 (stereo not given)	100%	100%
Cc1ccc(NC(=O)CCC(=O)N/N=C/c2ccc([N+](=O)[O-])o2)cc1C	51.3%	65.6%
O=c1[nH]c(SCc2ccc(Cl)cc2)nc2c1CCC2	98.3%	100%
Cc1ccc(S(=O)(=O)n2c(N)nc3ccccc32)cc1	97.8%	98.8%

Structure (SMILES)	stability	stability [1]
Cc1nc(SCc2nc3ccccc3[nH]2)c2oc3ccccc3c2n1	74.2%	84.7%
COc1ccc(OC)c(S(=O)(=O)Nc2cnc3ccccc3c2)c1	89.6%	93%
O=C(COc1ccccc1Br)NCCc1nc2ccccc2[nH]1	92.1%	100%
Cc1cc2c(s1)c1cnn(Cc3ccccc3F)c(=O)c1n2C	20.4%	86.7%
O=S(=O)(NC1CCCCC1N1CCOCC1)c1ccc(Cl)cc1 (stereo not given)	75%	89.4%
CN(C)c1oc(-c2ccc(OCc3ccc(Cl)cc3)cc2)nc1C#N	9.08%	100%
O=C(COC(=O)C12CC3CC(CC(C3)C1)C2)NCc1ccco1	49.6%	88.2%
COc1ccc(N(C(=O)CCl)C(C(=O)NCCc2ccccc2)c2cccs2)cc1Cl (stereo not given)	71.8%	100%
COc1ccc(S(=O)(=O)N2CCN(S(=O)(=O)c3ccc4c(c3)OCCO4)CC2)cc1	72.3%	80.8%
Cn1cnc([N+](=O)[O-])c1Sc1ncnc2nc[nH]c12	31.9%	–
Brc1cc2c(cc1C1Nc3ccccc3C3C=CCC31)OCO2 (stereo not given)	0.38%	68.9%
CCc1oc2ccccc2c1C(=O)c1cc(Br)c(O)c(Br)c1	100%	100%
Cc1ccc(NS(=O)(=O)c2ccc3c(c2)CCC(=O)N3)cc1C	68.5%	100%
c1ccc(-c2nnc(N3CCOCC3)nc2-c2ccccc2)cc1	57.4%	100%
COc1nc(-c2ccccc2)nnc1-c1ccccc1	10.1%	98.9%
CCCC(=O)Nc1cccc(NC(=O)c2ccccc2Br)c1	79.5%	86.7%
CN(C)c1nc(N)nc(CSc2nnnn2-c2cccc3ccccc23)n1	75.8%	94.6%
COc1ccc(S(=O)(=O)n2nc(OC(=O)c3ccccc3)cc2N)cc1	11.1%	91.8%
Cn1nnnc1Sc1ncnc2scc(-c3ccccc3)c12	85%	95.1%
Cc1ccnc(NC(=O)CCCOc2cc(=O)n(C)c3ccccc23)c1	93.8%	100%
CCOc1ccc(-c2nc(-c3ccncc3)no2)cc1OCC	59.9%	100%
COc1ccc(C2CC(c3ccccc3)=NN2c2ccc(S(N)(=O)=O)cc2)cc1 (stereo not given)	58.2%	90.9%
C/C=C/Cn1c(SCCCc2ccccc2)nc2c1c(=O)[nH]c(=O)n2C	73.4%	100%
COC(=O)c1ccccc1NC(=O)c1ccc(F)cc1	11.2%	93.4%
Cc1cc(C)nc(-n2nc(C)c(Sc3ccc(F)cc3)c2N)n1	56%	100%
CS(=O)(=O)c1ccc(C(=O)OCC(=O)NC23CC4CC(CC(C4)C2)C3)cc1[N+](=O)[O-]	12.8%	100%

Structure (SMILES)	stability	stability [1]
c1ccc(CC2CCN(c3ncnc4sccc34)CC2)cc1	6.42%	93.2%
COc1ccc(OC)c(-c2nnc3n2N=C(c2ccc(OC)c(OC)c2)CS3)c1	89.6%	99.6%
c1ccc2c(Nc3nnc(-c4ccncc4)s3)cccc2c1	84.2%	100%
CCN1CCN(c2nc3ccccc3nc2C(C#N)C(=O)OC2CCCCC2)CC1 (stereo not given)	33.4%	80.1%
O=[N+]([O-])c1ccc(CN2CCOCCOCCN(Cc3ccc([N+](=O)[O-])cc3)CCOCC2)cc1	96.1%	100%
Cc1cc(-c2nnc3n2CCCCC3)c(C)n1-c1ccccc1	100%	100%
O=c1[nH]c2c(s1)C(c1cccnc1)C1C3CCC(C3)C1S2 (stereo not given)	55%	66.5%
Cc1ccc(N2CCN(S(=O)(=O)N3CCCCC3)CC2)c(C)c1	15.1%	96.7%
O=C1C2CC=CCC2C(=O)N1c1n[nH]c(-c2ccccc2)n1 (stereo not given)	50.8%	100%
CC(=O)c1ccc(N2CCN(S(=O)(=O)c3ccc4c(c3)CC(=O)N4)CC2)cc1	95.7%	100%
Brc1ccc2c(c1)CN1CCCC1=N2	92.9%	93.4%
Cc1cccc(-n2cnc3cc(C(=O)N4CCCCC4)ccc32)c1	43.5%	80%
O=C(c1ccccn1)N(Cc1cccs1)C1(C(=O)NC2CCCCC2)CCCCC1	93.9%	97.5%
CCCc1nc2c(=O)n(C)c(=O)nc-2n(C)n1	100%	100%
CC[C@H]1CN2CCc3cc(OC)c(OC)cc3[C@@H]2C[C@@H]1C[C@H]1NCCc2cc(OC)c(OC)cc21	23.6%	90%
COc1ccc(C2c3c(ncn(CCN4CCOCC4)c3=N)Oc3ccc4ccccc4c32)cc1OC (stereo not given)	76.7%	85.6%
N#C/C(=C\c1ccc([N+](=O)[O-])o1)c1nc2ccccc2[nH]1	52.4%	100%
C=CCn1c(SCC(=O)c2ccc(O)c(O)c2)nnc1-c1ccccc1OC	82.6%	100%
O=C1NCCCc2c1oc1ccc(O)cc21	100%	100%
Cc1ccc(C(=O)n2c3ccccc3c3ccccc32)cc1	77.2%	74.6%
CCCc1cc(C(=O)N(C2CCCCC2)C2CCCCC2)no1	6.53%	76.7%
CC(C)C(=O)NC(c1ccco1)c1ccc2cccnc2c1O (stereo not given)	92.9%	100%
Cc1cc(C(=O)CN2C(=O)CCC2=O)c(C)n1Cc1ccccc1	73%	85.4%
CCOC(=O)C(C)Oc1cccc2c(=O)n(CC(=O)Nc3ccc4c(c3)OCCO4)ccc12 (stereo not given)	56.1%	94.6%
CCCn1ncc(CN2CCCC(C(=O)c3cccc(OC(C)C)c3)C2)c1C (stereo not given)	100%	100%
CCc1nnc(NC(=O)c2ccc(NS(=O)(=O)c3ccccc3)cc2)s1	86%	95.2%
